# Laboratory results from patent US9279003B2, “Analogs of sodium channel peptide toxin” (priority 2010, dated 2016).
# Where a SMILES comes first, the peptide text is derived from it. Bridges are numbered along the chain shown (N, C = ends). [ ]: non-standard residue; d: D form. NMeL = CN[C@@H](CC(C)C)C(=O)O; αMeL = CC(C)C[C@](C)(N)C(=O)O
# Experiments:
# human Nav1.7 = human Nav1.7 (Homo sapiens, UniProt Q15858); assay: cell-based; assay type: cell-based
# Nav1.2 (rBIIa) = assay type: cell-based, rat
# Chain of human Nav1.7 (Q15858 other isoform, or with tags, fused parts or gaps): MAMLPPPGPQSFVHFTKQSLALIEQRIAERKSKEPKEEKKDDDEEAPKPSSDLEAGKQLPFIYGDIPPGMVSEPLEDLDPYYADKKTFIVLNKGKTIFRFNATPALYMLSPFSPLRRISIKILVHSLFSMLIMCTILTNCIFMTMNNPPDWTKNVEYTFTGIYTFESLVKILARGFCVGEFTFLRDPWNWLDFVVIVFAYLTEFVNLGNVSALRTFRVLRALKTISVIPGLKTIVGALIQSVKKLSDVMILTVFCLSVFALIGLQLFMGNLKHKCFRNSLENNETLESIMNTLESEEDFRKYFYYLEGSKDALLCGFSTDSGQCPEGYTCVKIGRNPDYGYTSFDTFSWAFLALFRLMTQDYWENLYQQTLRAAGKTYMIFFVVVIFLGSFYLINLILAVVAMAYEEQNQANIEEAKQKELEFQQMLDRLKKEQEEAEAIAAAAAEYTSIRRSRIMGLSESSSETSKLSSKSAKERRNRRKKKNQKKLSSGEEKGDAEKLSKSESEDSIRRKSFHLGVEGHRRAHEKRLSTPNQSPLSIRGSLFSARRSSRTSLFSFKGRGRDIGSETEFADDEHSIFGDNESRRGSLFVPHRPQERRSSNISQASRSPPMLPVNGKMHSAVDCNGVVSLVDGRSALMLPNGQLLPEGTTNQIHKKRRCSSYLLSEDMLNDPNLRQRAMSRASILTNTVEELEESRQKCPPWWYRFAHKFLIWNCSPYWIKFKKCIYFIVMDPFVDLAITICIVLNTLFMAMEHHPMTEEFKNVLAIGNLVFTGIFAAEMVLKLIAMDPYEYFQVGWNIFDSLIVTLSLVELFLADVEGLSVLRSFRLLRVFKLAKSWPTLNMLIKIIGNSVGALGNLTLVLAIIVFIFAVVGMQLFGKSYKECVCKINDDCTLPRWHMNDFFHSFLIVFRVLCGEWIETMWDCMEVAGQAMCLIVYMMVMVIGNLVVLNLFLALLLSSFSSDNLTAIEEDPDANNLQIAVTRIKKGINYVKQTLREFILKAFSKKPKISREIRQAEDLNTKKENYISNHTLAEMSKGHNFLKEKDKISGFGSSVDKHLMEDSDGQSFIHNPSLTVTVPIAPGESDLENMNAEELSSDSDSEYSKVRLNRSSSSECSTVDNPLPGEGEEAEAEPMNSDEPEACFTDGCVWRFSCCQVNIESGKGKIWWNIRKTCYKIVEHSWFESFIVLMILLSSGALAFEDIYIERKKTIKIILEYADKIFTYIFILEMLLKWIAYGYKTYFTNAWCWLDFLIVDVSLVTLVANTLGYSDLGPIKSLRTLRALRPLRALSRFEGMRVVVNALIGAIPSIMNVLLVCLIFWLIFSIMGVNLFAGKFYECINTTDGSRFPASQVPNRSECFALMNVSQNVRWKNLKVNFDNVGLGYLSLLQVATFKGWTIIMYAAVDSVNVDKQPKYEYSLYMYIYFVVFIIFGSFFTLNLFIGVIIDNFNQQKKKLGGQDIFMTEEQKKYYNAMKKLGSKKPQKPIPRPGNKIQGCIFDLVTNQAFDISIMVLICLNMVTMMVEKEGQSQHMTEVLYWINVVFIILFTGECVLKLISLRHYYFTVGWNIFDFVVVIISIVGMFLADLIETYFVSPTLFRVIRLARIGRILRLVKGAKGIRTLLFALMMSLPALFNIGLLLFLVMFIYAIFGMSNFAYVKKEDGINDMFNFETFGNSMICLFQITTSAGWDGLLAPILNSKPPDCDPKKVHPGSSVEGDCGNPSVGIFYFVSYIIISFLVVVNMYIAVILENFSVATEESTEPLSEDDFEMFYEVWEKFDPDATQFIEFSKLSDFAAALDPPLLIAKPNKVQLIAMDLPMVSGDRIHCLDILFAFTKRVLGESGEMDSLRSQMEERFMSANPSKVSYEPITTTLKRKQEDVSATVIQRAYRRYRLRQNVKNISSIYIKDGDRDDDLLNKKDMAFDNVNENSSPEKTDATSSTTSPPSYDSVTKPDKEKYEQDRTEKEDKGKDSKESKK
SMILES,IC50 (human Nav1.7),IC50 (Nav1.2 (rBIIa))
"CC[C@H](C)[C@H](NC(=O)[C@H](CCCNC(=N)N)NC(=O)[C@H](CCCCN)NC(=O)[C@@H]1CSSC[C@@H]2NC(=O)[C@H](CCCCN)NC(=O)[C@H](CCCNC(=N)N)NC(=O)[C@H](CCC(=O)O)NC(=O)[C@H](CCC(=O)O)NC(=O)[C@H](CC(=O)O)NC(=O)[C@@H]3CSSC[C@H](NC(=O)[C@H](C(C)C)NC(=O)[C@H](CC(C)C)NC(=O)CNC(=O)[C@H](CCC(=O)O)NC(=O)[C@H](CSSC[C@H](NC(=O)[C@@H](N)Cc4ccc(O)cc4)C(=O)N[C@@H](CCC(N)=O)C(=O)N[C@@H](CCCCN)C(=O)N[C@@H](Cc4c[nH]c5ccccc45)C(=O)N[C@@H](CCSC)C(=O)N[C@@H](Cc4c[nH]c5ccccc45)C(=O)N[C@@H]([C@@H](C)O)C(=O)N3)NC2=O)C(=O)N[C@@H](CCCNC(=N)N)C(=O)N[C@@H](CC(C)C)C(=O)N[C@@H](Cc2c[nH]c3ccccc23)C(=O)N1)C(=O)N[C@H](C(=O)N[C@@H](CC(N)=O)C(=O)N[C@@H](CCSC)C(=O)O)[C@@H](C)CC [GsMTx II/PaTX II, reference compound] (H-YCQKWMWTCDEERKCCEGLVCRLWCKRIINM-OH; disulfide 2-16, 9-21, 15-25)",260 nM,–
CSCC[C@@H]1NC(=O)CNC(=O)[C@H](CCC(=O)O)NC(=O)[C@@H]2CSSC[C@H](NC(=O)[C@@H](N)Cc3ccc(O)cc3)C(=O)N[C@@H](CCC(N)=O)C(=O)N[C@@H](CCCCN)C(=O)N[C@@H](Cc3c[nH]c4ccccc34)C(=O)N[C@@H](CCSC)C(=O)N[C@@H](Cc3c[nH]c4ccccc34)C(=O)N[C@@H]([C@@H](C)O)C(=O)N[C@H]3CSSC[C@H](NC(=O)[C@H](C(C)C)NC1=O)C(=O)N[C@@H](CCCNC(=N)N)C(=O)N[C@@H](CC(C)C)C(=O)N[C@@H](Cc1c[nH]c4ccccc14)C(=O)N[C@H](C(=O)N[C@@H](CCCCN)C(=O)N[C@@H](CCCCN)C(=O)N[C@@H](CCCCN)C(=O)N[C@@H](CC(C)C)C(=O)N[C@@H](Cc1c[nH]c4ccccc14)C(=O)O)CSSC[C@H](NC(=O)[C@H](CCCCN)NC(=O)[C@H](CCCNC(=N)N)NC(=O)[C@H](C)NC(=O)[C@H](CO)NC(=O)[C@H](CC(=O)O)NC3=O)C(=O)N2 [compound 3],0.2 ± 0.03 nM,8 ± 2 nM
CSCC[C@@H]1NC(=O)[C@H](Cc2c[nH]c3ccccc23)NC(=O)[C@H](CCCCN)NC(=O)[C@H](CCC(N)=O)NC(=O)[C@@H](NC(=O)[C@@H](N)Cc2ccc(O)cc2)CSSC[C@@H]2NC(=O)[C@@H]3CSSC[C@@H](C(=O)N[C@@H](CCCCN)C(=O)N[C@@H](CCCCN)C(=O)N[C@@H](CCCCN)C(=O)N[C@@H](CC(C)C)C(=O)N[C@@H](Cc4c[nH]c5ccccc45)C(=O)O)NC(=O)[C@H](Cc4c[nH]c5ccccc45)NC(=O)[C@H](CC(C)C)NC(=O)[C@H](CCCNC(=N)N)NC(=O)[C@H](CSSC[C@H](NC(=O)[C@H]([C@@H](C)O)NC(=O)[C@H](Cc4c[nH]c5ccccc45)NC1=O)C(=O)N[C@@H](CC(=O)O)C(=O)N[C@@H](CO)C(=O)N[C@@H](CCC(=O)O)C(=O)N[C@@H](CCCNC(=N)N)C(=O)N[C@@H](CCCCN)C(=O)N3)NC(=O)[C@H](C(C)C)NC(=O)[C@H](CC(C)C)NC(=O)CNC(=O)[C@H](CCC(=O)O)NC2=O [compound 4],1.7 ± 0.1 nM,44.7 ± 15 nM
CC[C@H](C)[C@H](NC(=O)[C@@H](NC(=O)[C@H](CCCCN)NC(=O)[C@H](CCCCN)NC(=O)[C@@H]1CSSC[C@@H]2NC(=O)[C@H](CCCCN)NC(=O)[C@H](CCCNC(=N)N)NC(=O)[C@H](CCC(=O)O)NC(=O)[C@H](CO)NC(=O)[C@H](CC(=O)O)NC(=O)[C@@H]3CSSC[C@H](NC(=O)[C@H](C(C)C)NC(=O)[C@H](CCSC)NC(=O)CNC(=O)[C@H](CCC(=O)O)NC(=O)[C@H](CSSC[C@H](NC(=O)[C@@H](N)Cc4ccc(O)cc4)C(=O)N[C@@H](CCC(N)=O)C(=O)N[C@@H](CCCCN)C(=O)N[C@@H](Cc4c[nH]c5ccccc45)C(=O)N[C@@H](CCSC)C(=O)N[C@@H](Cc4c[nH]c5ccccc45)C(=O)N[C@@H]([C@@H](C)O)C(=O)N3)NC2=O)C(=O)N[C@@H](CCCNC(=N)N)C(=O)N[C@@H](CC(C)C)C(=O)N[C@@H](Cc2c[nH]c3ccccc23)C(=O)N1)[C@@H](C)CC)C(=O)O [compound 5],552 ± 90 nM,919 ± 130 nM
"CSCC[C@@H]1NC(=O)[C@H](Cc2c[nH]c3ccccc23)NC(=O)[C@H](CCCCN)NC(=O)[C@H](CCC(N)=O)NC(=O)[C@@H](NC(=O)[C@@H](N)Cc2ccc(O)cc2)CSSC[C@@H]2NC(=O)[C@@H]3CSSC[C@@H](C(=O)N[C@@H](CCCCN)C(=O)N[C@@H](CCCCN)C(=O)N[C@@H](CCCCN)C(=O)N[C@@H](CC(C)C)C(=O)N[C@@H](Cc4c[nH]c5ccccc45)C(=O)O)NC(=O)[C@H](Cc4c[nH]c5ccccc45)NC(=O)[C@H](CC(C)C)NC(=O)[C@H](CCCNC(=N)N)NC(=O)[C@H](CSSC[C@H](NC(=O)[C@H]([C@@H](C)O)NC(=O)[C@H](Cc4c[nH]c5ccccc45)NC1=O)C(=O)N[C@@H](CC(=O)O)C(=O)N[C@@H](CO)C(=O)N[C@@H](C)C(=O)N[C@@H](CCCNC(=N)N)C(=O)N[C@@H](CCCCN)C(=O)N3)NC(=O)[C@H](C(C)C)NC(=O)[C@H](CC(C)C)NC(=O)CNC(=O)[C@H](CCC(=O)O)NC2=O [compound 6] (H-YCQKWMWTCDSARKCCEGLVCRLWCKKKLW-OH; disulfide 2-16, 9-21, 15-25)",1 nM,24 ± 10 nM
"CSCC[C@@H]1NC(=O)[C@H](Cc2c[nH]c3ccccc23)NC(=O)[C@H](CCCCN)NC(=O)[C@H](CCC(N)=O)NC(=O)[C@@H](NC(=O)[C@@H](N)Cc2ccc(O)cc2)CSSC[C@@H]2NC(=O)[C@@H]3CSSC[C@@H](C(=O)N[C@@H](CCCCN)C(=O)N[C@@H](CCCCN)C(=O)N[C@@H](CCCCN)C(=O)N[C@@](C)(CC(C)C)C(=O)N[C@@H](Cc4c[nH]c5ccccc45)C(=O)O)NC(=O)[C@H](Cc4c[nH]c5ccccc45)NC(=O)[C@H](CC(C)C)NC(=O)[C@H](CCCNC(=N)N)NC(=O)[C@H](CSSC[C@H](NC(=O)[C@H]([C@@H](C)O)NC(=O)[C@H](Cc4c[nH]c5ccccc45)NC1=O)C(=O)N[C@@H](CC(=O)O)C(=O)N[C@@H](CO)C(=O)N[C@@H](C)C(=O)N[C@@H](CCCNC(=N)N)C(=O)N[C@@H](CCCCN)C(=O)N3)NC(=O)[C@H](C(C)C)NC(=O)[C@H](CC(C)C)NC(=O)CNC(=O)[C@H](CCC(=O)O)NC2=O [compound 7] (H-YCQKWMWTCDSARKCCEGLVCRLWCKKK[αMeL]W-OH; disulfide 2-16, 9-21, 15-25)",8 ± 1 nM,28 ± 6 nM
"CSCC[C@@H]1NC(=O)[C@H](Cc2c[nH]c3ccccc23)NC(=O)[C@H](CCCCN)NC(=O)[C@H](CCC(N)=O)NC(=O)[C@@H](NC(=O)[C@@H](N)Cc2ccc(O)cc2)CSSC[C@@H]2NC(=O)[C@@H]3CSSC[C@@H](C(=O)N[C@@H](CCCCN)C(=O)N[C@@H](CCCCN)C(=O)N[C@@H](CCCCN)C(=O)N(C)[C@@H](CC(C)C)C(=O)N[C@@H](Cc4c[nH]c5ccccc45)C(=O)O)NC(=O)[C@H](Cc4c[nH]c5ccccc45)NC(=O)[C@H](CC(C)C)NC(=O)[C@H](CCCNC(=N)N)NC(=O)[C@H](CSSC[C@H](NC(=O)[C@H]([C@@H](C)O)NC(=O)[C@H](Cc4c[nH]c5ccccc45)NC1=O)C(=O)N[C@@H](CC(=O)O)C(=O)N[C@@H](CO)C(=O)N[C@@H](C)C(=O)N[C@@H](CCCNC(=N)N)C(=O)N[C@@H](CCCCN)C(=O)N3)NC(=O)[C@H](C(C)C)NC(=O)[C@H](CC(C)C)NC(=O)CNC(=O)[C@H](CCC(=O)O)NC2=O [compound 8] (H-YCQKWMWTCDSARKCCEGLVCRLWCKKK[NMeL]W-OH; disulfide 2-16, 9-21, 15-25)",18 nM,51 ± 10 nM
"CC[C@H](C)[C@H](NC(=O)[C@H](CCCCN)NC(=O)[C@H](CCCCN)NC(=O)[C@H](CCCCN)NC(=O)[C@@H]1CSSC[C@@H]2NC(=O)[C@H](CCCCN)NC(=O)[C@H](CCCNC(=N)N)NC(=O)[C@H](C)NC(=O)[C@H](CO)NC(=O)[C@H](CC(=O)O)NC(=O)[C@@H]3CSSC[C@H](NC(=O)[C@H](C(C)C)NC(=O)[C@H](CC(C)C)NC(=O)CNC(=O)[C@H](CCC(=O)O)NC(=O)[C@H](CSSC[C@H](NC(=O)[C@@H](N)Cc4ccc(O)cc4)C(=O)N[C@@H](CCC(N)=O)C(=O)N[C@@H](CCCCN)C(=O)N[C@@H](Cc4c[nH]c5ccccc45)C(=O)N[C@@H](CCSC)C(=O)N[C@@H](Cc4c[nH]c5ccccc45)C(=O)N[C@@H]([C@@H](C)O)C(=O)N3)NC2=O)C(=O)N[C@@H](CCCNC(=N)N)C(=O)N[C@@H](CC(C)C)C(=O)N[C@@H](Cc2c[nH]c3ccccc23)C(=O)N1)C(=O)N[C@@H](CC(C)C)C(=O)N[C@@H](Cc1c[nH]c2ccccc12)C(=O)O [compound 9] (H-YCQKWMWTCDSARKCCEGLVCRLWCKKKILW-OH; disulfide 2-16, 9-21, 15-25)",1 nM,33 nM
"CC[C@H](C)[C@H](NC(=O)[C@H](CC(C)C)NC(=O)[C@H](CCCCN)NC(=O)[C@H](CCCCN)NC(=O)[C@H](CCCCN)NC(=O)[C@@H]1CSSC[C@@H]2NC(=O)[C@H](CCCCN)NC(=O)[C@H](CCCNC(=N)N)NC(=O)[C@H](C)NC(=O)[C@H](CO)NC(=O)[C@H](CC(=O)O)NC(=O)[C@@H]3CSSC[C@H](NC(=O)[C@H](C(C)C)NC(=O)[C@H](CC(C)C)NC(=O)CNC(=O)[C@H](CCC(=O)O)NC(=O)[C@H](CSSC[C@H](NC(=O)[C@@H](N)Cc4ccc(O)cc4)C(=O)N[C@@H](CCC(N)=O)C(=O)N[C@@H](CCCCN)C(=O)N[C@@H](Cc4c[nH]c5ccccc45)C(=O)N[C@@H](CCSC)C(=O)N[C@@H](Cc4c[nH]c5ccccc45)C(=O)N[C@@H]([C@@H](C)O)C(=O)N3)NC2=O)C(=O)N[C@@H](CCCNC(=N)N)C(=O)N[C@@H](CC(C)C)C(=O)N[C@@H](Cc2c[nH]c3ccccc23)C(=O)N1)C(=O)O [compound 10] (H-YCQKWMWTCDSARKCCEGLVCRLWCKKKLI-OH; disulfide 2-16, 9-21, 15-25)",4 nM,98 ± 10 nM
